Measured values from a melting point compilation (Tetko et al.; mined from patent text by program, amines drawn as free bases though some values may be those of a salt).

Compound	melting point [°C]
O=C(OCc1ccc([N+](=O)[O-])cc1)N1CCC(O)CC1	91.5 to 94
Cc1noc(C)c1-c1ccc2c(c1)ncc1ncn(-c3ccccc3C(C)(C)C)c12	216
COCCn1c(C)nc2cnc3ccccc3c21	128 to 130
c1ccc(N2c3ccccc3CC2C2=NCCN2)cc1 (centres undefined)	141 to 144
CCSc1nc2cccc(C(=O)O)c2n1Cc1ccc(-c2ccccc2-c2nc(=O)o[nH]2)cc1	146 to 148
COC(=O)c1cc(Cl)cnc1NCc1ccccc1	77 to 79
Cc1oc(-c2ccccc2)nc1CCOc1ccc(/C=C/CO)cn1	115 to 116
Cc1ccnc2c1N=C(N)c1cccnc1N2C1CC1	242 to 244
CCCc1nn(-c2ccc(C(F)(F)F)cn2)cc1CCC(=O)OCC	73 to 74
COc1nc2cc([N+](=O)[O-])cc(Br)c2nc1OC	171 to 175
COC(=O)CCc1nc(-c2cccc(NC(=O)OC(C)(C)C)c2)no1	90 to 91
Cc1c(Cl)ccc(-n2c(-c3ccccc3)cc(=O)c(C)c2-c2ccccc2)c1Cl	237 to 238
NN1CCN(CCc2c[nH]c3ccccc23)CC1	115 to 117
CN(Cc1ccc(NC(=O)C2=Cc3cc(-c4cc5ccccc5o4)ccc3S(=O)(=O)CC2)cc1)C1CCOCC1	234 to 235
CC(C)(O)Cn1c(CONC(=O)C2CC2)nc2c(N)nc3ccccc3c21	209 to 210
CC(C)N1C(=O)N(c2ccc(F)cc2)CSC1=NC(C)(C)C	109 to 110
CC(c1ccc(Cl)cc1Cl)n1nc(C(=O)O)cc1-c1ccc(Cl)cc1 (centres undefined)	80
CCN(CC)c1ccc(-c2ccc3c(c2)C=C(C(=O)Nc2ccc(CN(C)C4CCOCC4)cc2)CCN3C)cc1	178 to 180
Clc1ccc2[nH]cc([C@H]3CC[C@@H](N4CCN(c5cccc6[nH]ccc56)CC4)CC3)c2c1	283 to 285
CCCN(c1ccncn1)n1cc(C)c2ccccc21	74 to 76
C#Cc1cc(Nc2ncnc3cnc(F)cc23)ccc1Cl	218 to 222
CC(=O)Nc1cccc(Br)n1	157
CC1(C)CON(Cc2ccc(N3C(=O)C4=C(CCCC4)C3=O)cc2Cl)C1=O	102 to 104
Nc1nsnc1-c1c(Cl)cccc1Cl	95 to 97
Clc1ccc(Oc2ccccc2Oc2ccc(Cl)cn2)nc1	82 to 84

Compound	melting point [°C]
COC1(C(=O)CCc2ccc(-c3ccc(O)cc3)cc2)C=CC(Cl)=CC1N (centres undefined)	145 to 150
Cc1nc(N2CCC(N(C)C)CC2)c2nc(-c3ccccc3)cc-2[nH]1	262 to 263
O=C(O)C1CCc2ccccc2N1C(=O)CS (centres undefined)	85 to 96
O=C(Nc1cccc2c1C(=O)N(C1CCN(c3ccncc3)CC1)C2=O)c1ccc(Cl)s1	214
COc1ccc(NCCNC(=O)c2ccc(OCC=C(C)CCC=C(C)C)cc2)nc1	70.8 to 71.7
CCCc1c[nH]c([C@@H]2Cc3ccccc3N2C(C)=O)n1	174 to 175
COc1ccc(NC(=O)c2coc(-c3ccncc3)c2)cc1N1CCN(C)CC1	103 to 105
Nc1ccc(-c2noc(-c3cnn4c(C(F)(F)F)cc(-c5ccc(C(F)(F)F)c(F)c5)nc34)n2)cn1	233
COC(=O)c1nc2ccc(NCCCN3CCC(OC(c4ccccc4)c4ccccc4)CC3)nn2n1	93 to 96
Cn1cc(CO)c(=O)c2ccc(Cl)cc21	204 to 206
CNC(=O)Cc1cccc(C(=O)c2ccccc2)c1N	145 to 146
O=C(NCc1ccccc1Cl)c1ccc2cnccc2n1	120 to 121
C=CCc1cc(O)c(CC=C)c(C=NO)c1O	241 to 243
Cc1c(C)c(N2CCN(c3ccc(F)cc3)CC2)c(C)c2c1OC(C)(C)C2	175 to 177
CCOP(=O)(CC(Nc1cccnc1)c1cc(OC)c(O)c(OC)c1)OCC (centres undefined)	164 to 166
COc1cccc(C=C2C(=O)NC(=O)N2C)c1	195 to 197
CCC(C(=O)NC)n1nnc2ccccc21 (centres undefined)	136 to 137
CCn1c(C=Cc2ccccc2)cnc1[N+](=O)[O-]	154 to 156
CCCC1CCN(CCCCC(=O)c2cc(Cl)c(N)cc2OCc2cc(OC)cc(OC)c2)CC1	119 to 120
CCCC1=C(C#N)C(c2cccc(C(F)(F)F)c2Cl)c2c[nH]nc2N1 (centres undefined)	> 250
Cc1sc2c(Br)c3ccccc3c(-c3cc(C(C)C)c(OS(=O)(=O)c4ccc(C(=O)O)c(O)c4)c(C(C)C)c3)c2c1C	> 225
Nc1nc(-c2ccccc2)c(-c2ccc(=O)n(Cc3ccccc3)n2)s1	225 to 228
COc1cc(C2OCC(C)(C)C2(O)C(C)(C)C)cc(OC)c1Br (centres undefined)	130 to 131
Cn1cc(-c2cccc(N3Cc4cc(C(C)(C)C)ccc4C3=O)c2CO)cc(Nc2ccncn2)c1=O	216 to 218
COC(=O)CC(NC(=O)C1CCCCC1)C(C)=O (centres undefined)	87 to 88

Compound	melting point [°C]
COc1ccc(CNc2ncnc3c2ncn3C2OC(c3nnn[nH]3)C(O)C2O)cc1 (centres undefined)	210 to 211
Cc1cn2c(N)c(Cl)cc(C(=O)NCC3CCN(CC(C)C)CC3)c2n1	216 to 219
CCOC(=O)c1cnc2c(cnn2CC)c1OCC	112 to 115
CC1=CC(=C(C#N)C#N)C=C(C)N1	158 to 159
COc1cc(OC)nc(Oc2cccc(OC(F)F)c2C(=O)O)n1	113 to 115
NS(=O)(=O)c1ccc(NC(=O)c2ccccc2S)cc1	230 to 231
NC(=O)c1cnn(-c2ccc(Cl)nn2)c1N	314 to 317
CC(C)C1(C(C)C)CC(c2ccc(N)cc2)=CC=C1N	288
CC(C)(C)CC(C)(C)NCC(=O)N1CC2C(C1)C2Nc1ncc2cc(-c3ccccc3Cl)c(=O)n(C3CC3)c2n1 (centres undefined)	218 to 220
COc1ccc(CNc2nc(-n3ccnc3)nc3sc(C)cc23)cc1OC	207
CN(C(=O)OC(C)(C)C)c1cc(OCc2ccccc2)ccc1[N+](=O)[O-]	108 to 110
CC1(C)Oc2cc3nonc3cc2[C@@H](NC(=O)Nc2ccccc2)[C@@H]1O (relative stereo)	215 to 216
CCC(=O)Nc1ccc(C(=O)NCCN(CC)CC)c(OC)c1	137
NC(=O)C1CCN(c2cccc3c2OCCO3)CC1	194
ON=C1CCC(C2CCCC2)=C1c1cccc(O)c1	207 to 209
COc1cc2oc(=O)c3c(c2cc1N)CCN(CC(C)=O)C3	178 to 180
O=c1ccc2cc(-n3cnnc3)cc(C(F)(F)F)c2[nH]1	> 320
Cc1nc2sc(Cl)cn2c(=O)c1O	214 to 217
COc1nc(O)nc(C)c1Cl	235
OCCCSC(=S)Nc1ccccn1	93
O=C1NCCCc2cc(OCCCN3CCN(Cc4ccc5ccccc5n4)CC3)ccc21	161 to 162
CC1=C2c3c(cnc4cc(Cl)ccc34)NC2C(C)CN1 (centres undefined)	188 to 190
CCN1CCC(C(C(N)=O)(c2ccccc2)c2ccccc2)C1 (centres undefined)	141 to 142
CCc1nc2c(N)nc3ccccc3c2n1CCCCS(=O)(=O)N(C)C	193 to 195
